Reference: patent US20060135773A1, “Trisubstituted nitrogen modulators of tyrosine phosphatases” (priority 2004, published 2006)
pIC50: −log10 of the molar value.

Target: T1, PTP-1B (Homo sapiens, UniProt P18031)
T1 construct: PTP-1B (purified, 1 mg/mL) as a 1:250 dilution
T1 sequence (P18031 1-321 limits assumed): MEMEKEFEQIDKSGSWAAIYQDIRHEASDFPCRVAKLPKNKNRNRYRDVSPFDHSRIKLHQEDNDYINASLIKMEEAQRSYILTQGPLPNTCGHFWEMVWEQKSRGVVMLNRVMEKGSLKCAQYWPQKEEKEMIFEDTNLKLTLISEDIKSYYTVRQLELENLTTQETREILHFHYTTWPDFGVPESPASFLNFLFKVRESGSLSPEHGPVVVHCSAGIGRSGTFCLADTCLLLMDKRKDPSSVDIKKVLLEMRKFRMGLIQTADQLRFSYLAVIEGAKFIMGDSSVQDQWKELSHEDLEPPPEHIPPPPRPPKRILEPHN
Assay: pNPP tyrosine phosphatase inhibition assay, PTP-1B
Format: biochemical
Details: pNPP assay, PTP-1B; read-out: Activity Class (IC50 ranges)
Description: The compounds provided herein are evaluated for biological activity as inhibitors of PTP-1B using, for example, a pNPP assay can be used to screen compounds for tyrosine phosphatase inhibitory activity as described in the Examples.
A 5× stock of pNPP (p-nitrophenol phosphate) substrate is prepared as 50 mM pNPP in assay buffer. Various tyrosine phosphatase solutions can be prepared as follows: • PTP-1B (purified, 1 mg/mL) as a 1:250 dilution (to a final concentration of 4:g/mL); • TC-PTP (NEB, 1000 units in 100:L) as a 1:50 dilution (to a final concentration of 2U/10:L (4:g/mL)); • CD45 (Calbiochem, 20:g, 400 units in 100:L) as a 1:50 dilution (to a final concentration of 0.8U/10:L (4:g/mL)); • LAR (NEB, 1000 units in 200:L) as a 1:75 dilution (to a final concentration of 0.7U/10:L (4:g/mL)); and • PTP-β (UBI, #14-350, 10,000 units, 40:g/571:L) as a 1:17.5 dilution (to a final concentration of 10U/10:L (4:g/mL));
The compound to be tested is prepared as 1:16.7 and 1:50 dilutions from stock in a total volume of […] DMSO to give final concentrations of 626 and 200:M. The reaction mixtures are prepared in a 96-well microtiter plate (on ice) as 55:L assay buffer, 5:L of the diluted compound (to a final concentration of 31.3 and 10:M), 20:L of the pNPP substrate solution (to a final concentration of 10 mM) and 20:L PTPase in assay buffer. The reactants are mixed well, the plate placed in a water bath at 30° C. and incubated for 10 minutes. The reaction is then terminated by adding 100:L of 2M K2CO3 per well, and the absorbance is measured at 405 nm by conventional means.
Unless otherwise indicated, this assay was used to determine activity for the selected compounds whose activity is provided in Table 1.

Row | pIC50 | Compound
1 | < 4.60 | CC(=O)N(Cc1ccc(C(F)(F)P(=O)(O)O)cc1)Cc1ccc(C(F)(F)P(=O)(O)O)cc1 [Compound 59, {[4-({Acetyl-[4-(difluoro-phosphono-methyl)-benzyl]-amino}-methyl)-phenyl]-difluoro-methyl}-phosphonic acid]
2 | 6.30 to 6.60 | COc1ccccc1S(=O)(=O)N(Cc1ccc(S(C)(=O)=O)cc1)Cc1ccc(C(F)(F)P(=O)(O)O)c(Br)c1 [Compound 108, [(2-Bromo-4-{[(4-methanesulfonyl-benzyl)-(2-methoxy-benzenesulfonyl)-amino]-methyl}-phenyl)-difluoro-methyl]-phosphonic acid]
3 | > 7.00 | COc1ccccc1S(=O)(=O)N(Cc1ccc(-c2ccc(Cl)c(C(=O)NO)c2)cc1)Cc1ccc(C(F)(F)P(=O)(O)O)c(Cl)c1 [Compound 181, [(2-Chloro-4-{[(4′-chloro-3′-hydroxycarbamoyl-biphenyl-4-ylmethyl)-(2-methoxy-benzenesulfonyl)-amino]-methyl}-phenyl)-difluoro-methyl]-phosphonic acid]
4 | < 4.60 | COc1ccc(OC)c(S(=O)(=O)N(Cc2ccc(C(=O)C(=O)O)cc2)Cc2ccc(S(C)(=O)=O)cc2)c1 [Compound 113, (4-{[(2,5-Dimethoxy-benzenesulfonyl)-(4-methanesulfonyl-benzyl)-amino]-methyl}-phenyl)-oxo-acetic acid]
5 | 6.30 to 6.60 | O=P(O)(O)C(F)(F)c1ccc(CN(Cc2ccc(C(F)(F)P(=O)(O)O)c(Cl)c2)C2CCc3ccccc32)cc1Cl (stereo not shown) [Compound 232, {[2-Chloro-4-({[3-chloro-4-(difluoro-phosphono-methyl)-benzyl]-indan-1-yl-amino}-methyl)-phenyl]-difluoro-methyl}-phosphonic acid]
6 | < 4.60 | O=C(O)c1ccc(CN(Cc2ccc(C(=O)O)cc2)S(=O)(=O)c2ccccc2)cc1 [Compound 78, 4-([Benzenesulfonyl-(4-carboxybenzyl)-amino]-methyl)-benzoic acid]
7 | 6.60 to 7.00 | COc1ccccc1S(=O)(=O)N(Cc1ccc(-c2cccc(C(N)=O)c2)cc1)Cc1ccc(C(F)(F)P(=O)(O)O)c(Cl)c1 [Compound 161, [(4-{[(3′-Carbamoyl-biphenyl-4-ylmethyl)-(2-methoxy-benzenesulfonyl)-amino]-methyl}-2-chloro-phenyl)-difluoro-methyl]-phosphonic acid]
8 | 6.60 to 7.00 | COC(=O)c1ccc(-c2ccc(CN(Cc3ccc(C(F)(F)P(=O)(O)O)c(Cl)c3)S(=O)(=O)c3ccccc3OC)cc2)cc1F [Compound 174, 4′-{[[3-Chloro-4-(difluoro-phosphono-methyl)-benzyl]-(2-methoxy-benzenesulfonyl)-amino]-methyl}-3-fluoro-biphenyl-4-carboxylic acid methyl ester]
9 | < 4.60 | COc1ccccc1S(=O)(=O)N(Cc1ccc(N(C)C(=O)C(=O)O)cc1)Cc1ccc(N(C)C(=O)C(=O)O)cc1 [Compound 141, N-[4-({(2-Methoxy-benzenesulfonyl)-[4-(methyl-oxalyl-amino)-benzyl]-amino}-methyl)-phenyl]-N-methyl-oxalamic acid]
10 | 6.30 to 6.60 | COc1ccccc1S(=O)(=O)N(Cc1ccc(S(C)(=O)=O)cc1)Cc1ccc(C(F)(F)P(=O)(O)O)c(Cl)c1 [Compound 137, [(2-Chloro-4-{[(4-methanesulfonyl-benzyl)-(2-methoxy-benzenesulfonyl)-amino]-methyl}-phenyl)-difluoro-methyl]-phosphonic acid]
11 | 6.60 to 7.00 | COc1ccccc1S(=O)(=O)N(Cc1ccc(C(F)(F)P(=O)(O)O)c(Cl)c1)Cc1ccccc1Oc1ccccc1 [Compound 173, [(2-Chloro-4-{[(2-methoxy-benzenesulfonyl)-(2-phenoxy-benzyl)-amino]-methyl}-phenyl)-difluoro-methyl]-phosphonic acid]
12 | 6.60 to 7.00 | COc1ccccc1S(=O)(=O)N(Cc1ccc(-c2cccc(C#N)c2)cc1)Cc1ccc(C(F)(F)P(=O)(O)O)c(Cl)c1 [Compound 46, [(2-Chloro-4-{[(3′-cyano-biphenyl-4-ylmethyl)-(2-methoxy-benzenesulfonyl)-amino]-methyl}-phenyl)-difluoro-methyl]-phosphonic acid]
13 | 6.60 to 7.00 | N#Cc1ccc(CN(Cc2ccc(C(F)(F)P(=O)(O)O)c(Br)c2)S(=O)(=O)c2ccccc2Cl)cc1 [Compound 103, [(2-Bromo-4-{[(4-cyano-benzyl)-(2-chlorobenzenesulfonyl)-amino]-methyl}-phenyl)-difluoro-methyl]-phosphonic acid]
14 | < 4.60 | COc1ccccc1S(=O)(=O)N(Cc1ccc(C#N)cc1)Cc1ccc(CC(C(=O)O)C(=O)O)cc1 [Compound 140, 2-(4-{[(4-Cyano-benzyl)-(2-methoxy-benzenesulfonyl)-amino]-methyl}-benzyl)-malonic acid]
15 | 4.60 to 5.60 | 2,2-Dimethyl-propionic acid [(2-bromo-4-{[(4-methanesulfonyl-phenyl)-(2-methoxy-benzenesulfonyl)-amino]-methyl}-phenyl)-difluoro-methyl]-hydroxy-phosphinoyloxymethyl ester [Compound 228]
16 | < 4.60 | Cc1cc(C=C(C#N)C(=O)Nc2ccc3ccccc3c2)c(C)n1-c1ccc(C(=O)O)cc1 [Compound 58, 4-{3-[2-Cyano-2-(naphthalen-2-ylcarbamoyl)-vinyl]-2,5-dimethyl-pyrrol-1-yl}-benzoic acid]
17 | 6.30 to 6.60 | N#Cc1cccc(S(=O)(=O)N(Cc2ccc(C(F)(F)P(=O)(O)O)c(Cl)c2)Cc2ccccc2-c2ccccc2)c1 [Compound 216, [(4-{[Biphenyl-2-ylmethyl-(3-cyano-benzenesulfonyl)-amino]-methyl}-2-chloro-phenyl)-difluoro-methyl]-phosphonic acid]
18 | 6.30 to 6.60 | COC(=O)c1ccc(CN(Cc2ccc(C(F)(F)P(=O)(O)O)c(Br)c2)S(=O)(=O)c2ccccc2)cc1 [Compound 30, 4-({Benzenesulfonyl-[3-bromo-4-(difluoro-phosphono-methyl)-benzyl]-amino}-methyl)-benzoic acid methyl ester]
19 | 6.30 to 6.60 | CCOC(=O)[C@H](C)NP(=O)(O)C(F)(F)c1ccc(CN(Cc2ccc(-c3cccc(C#N)c3)cc2)S(=O)(=O)c2ccccc2OC)cc1Cl [Compound 219, [S]-N-[(2-Chloro-4-{[(3′-cyano-biphenyl-4-ylmethyl)-(2-methoxy-benzenesulfonyl)-amino]-methyl}-phenyl)-difluoro-methyl]-phosphonyl-(ethyl alaninate)]
20 | 4.60 to 5.60 | COc1ccccc1S(=O)(=O)N(Cc1ccc(C(F)(F)P(=O)(O)O)c(Cl)c1)C(Cc1ccccc1)c1ccccc1 (stereo not shown) [Compound 171, [(2-Chloro-4-{[(1,2-diphenyl-ethyl)-(2-methoxy-benzenesulfonyl)-amino]-methyl}-phenyl)-difluoro-methyl]-phosphonic acid]
21 | 6.30 to 6.60 | O=P(O)(O)C(F)(F)c1ccc(CN(c2ccc(Cl)c(Cl)c2)S(=O)(=O)c2ccccc2)cc1Br [Compound 34, [(4-{[Benzenesulfonyl-(3,4-dichloro-phenyl)-amino]-methyl}-2-bromo-phenyl)-difluoro-methyl]-phosphonic acid]

Row | Compound | pIC50
22 | {[4-(difluorophosphonomethyl)-3-chlorophenyl]methyl}[(2-methoxyphenyl)sulfonyl](3-piperidylmethyl)amine [Compound 209] | 4.60 to 5.60
23 | [(4-{[(3′-Carbamoyl-biphenyl-2-ylmethyl)-(2-methoxy-benzenesulfonyl)-amino]-methyl}-2-chloro-phenyl)-difluoro-methyl]-phosphonic acid [Compound 187] | > 7.00
24 | CC(C)COC(=O)N(Cc1ccc(C(F)(F)P(=O)(O)O)cc1)Cc1ccc(C(F)(F)P(=O)(O)O)cc1 [Compound 61, {[4-({[4-(Difluoro-phosphono-methyl)-benzyl]-isobutoxycarbonyl-amino}-methyl)-phenyl]-difluoro-methyl}-phosphonic acid] | 4.60 to 5.60
25 | {[4-(difluorophosphonomethyl)-3-chlorophenyl]methyl}[(2-methoxyphenyl)sulfonyl]{[2-(4-methylphenyl)phenyl]methyl}amine [Compound 198] | > 7.00
